In ChEMBL document CHEMBL1201862, “PubChem BioAssay data set” (2004):
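All cell lines were grown in 96-well plates and treated with compound for 48 hours. Abbreviation: GI50, concentration required for 50% inhibition of growth.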 Active and inactive are the calls of the source. Cut-off read from the data, not from the text of the source: active = GI50 up to about 1.1 µM and inactive = higher.

Legend:
Assay in all cases: NCI anticancer screen, dose series, 48 h
OVCAR-8 = test system: OVCAR-8
MDA-MB-231 = test system: MDA-MB-231
EKVX = test system: EKVX
786-0 = test system: 786-0
CCRF-CEM = test system: CCRF-CEM
SW-620 = test system: SW-620
MCF7 = test system: MCF7
MDA-MB-435 = test system: MDA-MB-435
KM12 = test system: KM12
CAKI-1 = test system: CAKI-1
NCI-H522 = test system: NCI-H522
HT-29 = test system: HT-29
M14 = test system: M14
UACC-62 = test system: UACC-62
HOP-92 = test system: HOP-92
SK-MEL-5 = test system: SK-MEL-5
A549 = test system: A549
SK-MEL-28 = test system: SK-MEL-28
RPMI-8226 = test system: RPMI-8226

SMILES | GI50 (OVCAR-8) | GI50 (MDA-MB-231) | GI50 (EKVX) | GI50 (786-0) | GI50 (CCRF-CEM) | GI50 (SW-620) | GI50 (MCF7) | GI50 (MDA-MB-435) | GI50 (KM12) | GI50 (CAKI-1) | GI50 (NCI-H522) | GI50 (HT-29) | GI50 (M14) | GI50 (UACC-62) | GI50 (HOP-92) | GI50 (SK-MEL-5) | GI50 (A549) | GI50 (SK-MEL-28) | GI50 (RPMI-8226)
Cc1c(O)c(OC2OC(CO)C(O)C(O)C2O)cc2c1CC[C@@H]1C2(C)C(=O)C[C@]2(C)[C@@H]([C@@](C)(O)C(=O)CCC(C)(C)O)[C@H](O)C[C@@]12C (stereo partly drawn) | > 100 µM (inactive) | > 100 µM (inactive) | > 100 µM (inactive) | > 100 µM (inactive) | > 100 µM (inactive) | > 100 µM (inactive) | > 100 µM (inactive) | > 100 µM (inactive) | > 100 µM (inactive) | > 100 µM (inactive) | > 100 µM (inactive) | > 100 µM (inactive) | > 100 µM (inactive) | > 100 µM (inactive) | > 100 µM (inactive) | > 100 µM (inactive) | > 100 µM (inactive) | > 100 µM (inactive) | 
N#Cc1c(Cl)c(C=O)c(=O)n2c1[nH]c1ccccc12 | 42.1 µM (inactive) | 31.8 µM (inactive) | > 100 µM (inactive) | 55.7 µM (inactive) | 40.4 µM (inactive) | 77.4 µM (inactive) | 33.3 µM (inactive) | 33.7 µM (inactive) | 47.3 µM (inactive) | 40.3 µM (inactive) | 44 µM (inactive) | 36 µM (inactive) | 28.4 µM (inactive) | 55.6 µM (inactive) | 24.2 µM (inactive) | 91.8 µM (inactive) | > 100 µM (inactive) | 63.1 µM (inactive) | > 100 µM (inactive)
COc1cc2c(cc1C[N+](C)(C)CSc1ccccc1)-c1ccccc1CC2 | 3.9 µM (inactive) | 2.86 µM (inactive) | 10.6 µM (inactive) | 6.07 µM (inactive) | 3.64 µM (inactive) | 10.4 µM (inactive) | 5 µM (inactive) | 3.18 µM (inactive) | 2.2 µM (inactive) | 13.5 µM (inactive) | 2.01 µM (inactive) | 2.25 µM (inactive) | 2.07 µM (inactive) | 2.52 µM (inactive) | 8.51 µM (inactive) | 1.17 µM (inactive) | 19 µM (inactive) | 4.31 µM (inactive) | 1.57 µM (inactive)
COc1ccc(-n2c(=O)c3nc[nH]c3n(-c3ccc(OC)cc3)c2=S)cc1 | > 100 µM (inactive) | > 100 µM (inactive) | > 100 µM (inactive) | > 100 µM (inactive) | > 100 µM (inactive) | > 100 µM (inactive) | > 100 µM (inactive) | > 100 µM (inactive) | > 100 µM (inactive) | > 100 µM (inactive) | 17.7 µM (inactive) | > 100 µM (inactive) | > 100 µM (inactive) | > 100 µM (inactive) | > 100 µM (inactive) | > 100 µM (inactive) | > 100 µM (inactive) | > 100 µM (inactive) | > 100 µM (inactive)
NCCCC(N)C(=O)O (stereo not drawn) | > 100 µM (inactive) | > 100 µM (inactive) | > 100 µM (inactive) | > 100 µM (inactive) | > 100 µM (inactive) | > 100 µM (inactive) | > 100 µM (inactive) | > 100 µM (inactive) | > 100 µM (inactive) | > 100 µM (inactive) | > 100 µM (inactive) | > 100 µM (inactive) | > 100 µM (inactive) | > 100 µM (inactive) | > 100 µM (inactive) | > 100 µM (inactive) | > 100 µM (inactive) | > 100 µM (inactive) | > 100 µM (inactive)
CN(/N=C\c1ccc2ccccc2c1)C1=NCCCN1 | 15.4 µM (inactive) | 15.6 µM (inactive) | 17.3 µM (inactive) | 12.7 µM (inactive) | 12.7 µM (inactive) | 12.1 µM (inactive) | 3.56 µM (inactive) | 15.2 µM (inactive) | 15 µM (inactive) | 4.88 µM (inactive) | 13.8 µM (inactive) | 12 µM (inactive) |  | 14.2 µM (inactive) | 2.11 µM (inactive) | 11.9 µM (inactive) | 8.18 µM (inactive) | 14.6 µM (inactive) | 14.9 µM (inactive)
O=C1CSC(c2cccc(Oc3ccccc3)c2)N1c1cccc(Cl)c1Cl (stereo not drawn) | 19.8 µM (inactive) | 22.3 µM (inactive) | 25.2 µM (inactive) | 27.7 µM (inactive) | 18.5 µM (inactive) | 29.1 µM (inactive) | 13.7 µM (inactive) | 13.7 µM (inactive) | 26.7 µM (inactive) | 65.2 µM (inactive) | 20.7 µM (inactive) | 22.4 µM (inactive) | 40.4 µM (inactive) | 17.8 µM (inactive) | 12.3 µM (inactive) | 18.4 µM (inactive) | > 100 µM (inactive) | 50 µM (inactive) | 
C=C1C(=O)O[C@H]2/C=C(/C)C3=CC(=O)[C@@](C)(C[C@@H](OC(=O)/C(C)=C\C)C12)O3 (stereo partly drawn) | 0.863 µM (active) | 3.05 µM (inactive) |  | 0.426 µM (active) | 0.0953 µM (active) | 0.128 µM (active) | 0.36 µM (active) | 1.21 µM (inactive) | 2.86 µM (inactive) | 0.185 µM (active) | 0.138 µM (active) | 0.265 µM (active) | 1.85 µM (inactive) | 0.891 µM (active) | 0.703 µM (active) | 1.03 µM (active) | 4.05 µM (inactive) | 0.708 µM (active) | 0.0589 µM (active)
CCC1c2[nH]c3ccccc3c2C[C@H]2C(=O)NC(Cc3c[nH]c4ccccc34)C(=O)N12 (stereo partly drawn) | 32.7 µM (inactive) | 17.1 µM (inactive) | 32 µM (inactive) | 23.4 µM (inactive) |  | 38.5 µM (inactive) | 27.3 µM (inactive) | 19.7 µM (inactive) | 18.9 µM (inactive) | 28.8 µM (inactive) | 22.6 µM (inactive) | 24.2 µM (inactive) | 21.5 µM (inactive) | 15.5 µM (inactive) | 26.5 µM (inactive) | 17.5 µM (inactive) | 28 µM (inactive) | 33.9 µM (inactive) | 19.4 µM (inactive)
Cn1c(=O)oc2nc(-c3ccccc3)cc(C(F)(F)F)c21 | > 100 µM (inactive) | > 100 µM (inactive) | > 100 µM (inactive) | > 100 µM (inactive) |  | > 100 µM (inactive) | 37.8 µM (inactive) | 15.9 µM (inactive) | 9.93 µM (inactive) | > 100 µM (inactive) | > 100 µM (inactive) | 33.2 µM (inactive) | > 100 µM (inactive) | > 100 µM (inactive) | 35.7 µM (inactive) | 50.7 µM (inactive) | > 100 µM (inactive) | > 100 µM (inactive) | 30.5 µM (inactive)
Cc1cc2c(cc1C(=O)c1ccc(N)cc1)OCO2 | > 100 µM (inactive) | 34.1 µM (inactive) | 31 µM (inactive) | 34.6 µM (inactive) | 39.1 µM (inactive) | 34.8 µM (inactive) | 20.1 µM (inactive) | 7.82 µM (inactive) | 21.4 µM (inactive) | 24.5 µM (inactive) | 19.1 µM (inactive) | 22.9 µM (inactive) | 29.4 µM (inactive) | 31 µM (inactive) | 33.2 µM (inactive) | 20 µM (inactive) | 39.6 µM (inactive) |  | 36.3 µM (inactive)
NC(Cc1ccc(OCc2ccccc2)cn1)C(=O)OCc1ccccc1 (stereo not drawn) | > 100 µM (inactive) | > 100 µM (inactive) | > 100 µM (inactive) | > 100 µM (inactive) | > 100 µM (inactive) | > 100 µM (inactive) | > 100 µM (inactive) | > 100 µM (inactive) | > 100 µM (inactive) | > 100 µM (inactive) | > 100 µM (inactive) | > 100 µM (inactive) |  |  | > 100 µM (inactive) | > 100 µM (inactive) | > 100 µM (inactive) | > 100 µM (inactive) | > 100 µM (inactive)
CCOC(=O)C1C(C)C2(C#N)C(=N)OC1(C)C2(C#N)C#N (stereo not drawn) | > 100 µM (inactive) | > 100 µM (inactive) | > 100 µM (inactive) | 66.7 µM (inactive) |  | 84.7 µM (inactive) | 55.2 µM (inactive) | 65.9 µM (inactive) | > 100 µM (inactive) | 53.6 µM (inactive) | 71.9 µM (inactive) | 58.9 µM (inactive) | > 100 µM (inactive) | 46 µM (inactive) | 30.1 µM (inactive) | 41.4 µM (inactive) | > 100 µM (inactive) | 28.1 µM (inactive) | 18.5 µM (inactive)
Cn1c(C(C)(C)OC(=O)Oc2ccccc2)cnc1[N+](=O)[O-] | 70.6 µM (inactive) | 26.1 µM (inactive) | 42.9 µM (inactive) | > 100 µM (inactive) |  | 72.8 µM (inactive) | 63 µM (inactive) | > 100 µM (inactive) | 58.6 µM (inactive) | > 100 µM (inactive) | 70.8 µM (inactive) | 34 µM (inactive) | > 100 µM (inactive) | 55.6 µM (inactive) | > 100 µM (inactive) | 53.3 µM (inactive) | > 100 µM (inactive) | > 100 µM (inactive) | 21 µM (inactive)
CC1=[N+](C)CCCN1C | > 100 µM (inactive) | > 100 µM (inactive) | > 100 µM (inactive) | > 100 µM (inactive) | > 100 µM (inactive) | > 100 µM (inactive) | > 100 µM (inactive) | > 100 µM (inactive) | > 100 µM (inactive) | > 100 µM (inactive) | > 100 µM (inactive) | > 100 µM (inactive) | > 100 µM (inactive) |  | > 100 µM (inactive) | > 100 µM (inactive) | > 100 µM (inactive) | > 100 µM (inactive) | > 100 µM (inactive)
